What was measured:
Type in all cases: cell-based
[1] = tested on: SW480 (primary colon cancer) cells; test: SRB cytotoxicity assay, SW480; conditions: Homo sapiens, SW480; SRB assay, 48 h culture, mean ± SD, at least three independent experiments; compounds marked * : low solubility, real values might be lower; read-out: Cytotoxicity IC50, SW480
Protocol: (§1) The antiproliferative activity was tested on human primary (SW480) and metastatic (SW620) colon cancer, human prostate cancer (PC3), human liver cancer (HepG2), human breast cancer (MDA), human lung cancer (A549), and human immortalized keratinocyte (HaCaT) cell lines obtained from the American Type Culture Collection (ATCC, Rockville, MD, USA). The cells were cultured in EMEM (SW480 and SW620), RPMI 1640 (PC3) or DMEM High Glucose (HepG2, MDA, A549, and HaCaT) with stable glutamine supplemented with 10% heat-inactivated fetal bovine serum (FBS), penicillin (100 U/mL), and streptomycin (100 µg/mL) in 37 °C and 5% CO2/95% air humified incubator. The cells were grown until 80–90% confluence and then were harvested with 0.25% trypsin and used for the experiments. All the reagents for the cell culture were provided by VWR Chemicals.
(§2) Cytotoxicity was tested with the sulforhodamine B (SRB) assay according to the National Cancer Institute protocol with slight modifications. Briefly, cells were seeded on a 96-well plate (5 × 10^3 cells per well). After 24 h incubation, zero-time control cells were fixed with TCA (final concentration 5%) for 1 h at 4 °C. […] The untreated cells were used as the control. After incubation, the cells were fixed with TCA (final concentration 5%) for 1 h at 4 °C, gently washed 4 times with tap water, and left for drying. The dried fixed cells were incubated with SRB solution (0.05% SRB in 1% acetic acid) for 30 min rt, washed four times with 1% acetic acid, and left for drying. The dried cells were dissolved in 10 mM Tris-base solution (pH 10.5) and the absorbance was read at 510 nm.
(§3) The cell viability was presented as a percent of SRB reduction in the treated cells versus that in control cells. The mean absorbance for control cells was assumed as 100%. No-cell control (blank well) absorbance was assumed as 0%, unless the compound was cytostatic, then 0% referred to zero-time control. The IC50 values were calculated using the GraphPad Prism 10.1.2 (324) (USA) software. The most cytotoxic compounds (8 and 20) were selected for further in vitro experiments.

[2] = tested on: SW620 (metastatic colon cancer) cells; test: SRB cytotoxicity assay, SW620; conditions: Homo sapiens, SW-620; SRB assay, 48 h culture, mean ± SD, at least three independent experiments; compounds marked * : low solubility, real values might be lower; read-out: Cytotoxicity IC50, SW620
Protocol: as §1, §2, §3

[3] = tested on: PC3 (prostate cancer) cells; test: SRB cytotoxicity assay, PC3; conditions: Homo sapiens; SRB assay, 48 h culture, mean ± SD, at least three independent experiments; compounds marked * : low solubility, real values might be lower; read-out: Cytotoxicity IC50, PC3
Protocol: as §1, §2, §3

[4] = tested on: HepG2 (liver cancer) cells; test: SRB cytotoxicity assay, HepG2; conditions: Homo sapiens, HepG2; SRB assay, 48 h culture, mean ± SD, at least three independent experiments; compounds marked * : low solubility, real values might be lower; read-out: Cytotoxicity IC50, HepG2
Protocol: as §1, §2, §3

[5] = tested on: MDA (breast cancer) cells; test: SRB cytotoxicity assay, MDA; conditions: Homo sapiens; SRB assay, 48 h culture, mean ± SD, at least three independent experiments; compounds marked * : low solubility, real values might be lower; read-out: Cytotoxicity IC50, MDA
Protocol: as §1, §2, §3

A549 (lung cancer) cells = test: SRB cytotoxicity assay, A549; conditions: Homo sapiens, A549; SRB assay, 48 h culture, mean ± SD, at least three independent experiments; compounds marked * : low solubility, real values might be lower; read-out: Cytotoxicity IC50, A549
Protocol: as §1, §2, §3

[6] = SRB cytotoxicity assay, HaCaT; conditions: human, HaCaT immortalized keratinocyte cells (non-tumor cell line), 48 h culture, mean ± SD, at least three independent experiments, compounds marked * : low solubility, real values might be lower
Protocol: as §1, §2, §3

[7] = tested on: six human cancer cell lines (SW480, SW620, PC3, HepG2, MDA, A549) and HaCaT; test: SRB cytotoxicity assay, whole panel; conditions: cell line panel
Protocol: The antiproliferative properties of the studied combretastatin derivatives were tested on six human cancer cell lines, including primary colon (SW480), metastatic colon (SW620), prostate (PC3), liver (HepG2), breast (MDA), and lung (A549) cancer cells, and non-tumor human immortalized keratinocyte cell line (HaCaT) using the sulforhodamine B (SRB) assay. […] No selectivity was observed against the tumor cell lines when compared to that against the non-tumor cell line. Nevertheless, these values were much higher than the IC50 of the reference compounds (<0.2 μM).
as §1, §2, §3

Question: For `COc1ccc(/C(=C\c2cc(OC)c(OC)c(OC)c2)C(=O)O)cc1Br` [Compound 3], which IC50 [1] is on record?
Answer: The IC50 was greater than 100 µM.

Question: What about the IC50 [2] of the same compound?
Answer: Its IC50 is greater than 100 µM.

Question: And the IC50 [3]?
Answer: Its IC50 is greater than 100 µM.

Question: And the IC50 [4]?
Answer: The IC50 was greater than 100 µM.

Question: What about the IC50 [5] of the same compound?
Answer: The IC50 was greater than 100 µM.

Question: And the IC50 (A549 (lung cancer) cells)?
Answer: Its IC50 is greater than 100 µM.

Question: And the IC50 at 48 h [6]?
Answer: Its IC50 at 48 h is greater than 100 µM.

Question: What about the “Cytotoxicity (in words)” value [7] of the same compound?
Answer: Its value is “does not have any anticancer potential”.

Question: With `COC(=O)/C(=C/c1cc(OC)c(OC)c(OC)c1)c1ccc(OC)c(Br)c1` [Compound 4] as the compound, how does the IC50 [1] read?
Answer: The IC50 was 57.6 ± 9.4 µM.

Question: What about the IC50 [2] of the same compound?
Answer: Its IC50 is 61.8 ± 11.4 µM.

Question: And the IC50 [3]?
Answer: Its IC50 is 65.9 ± 16.1 µM.

Question: And the IC50 [4]?
Answer: The IC50 was 63.7 ± 12.6 µM.

Question: What about the IC50 [5] of the same compound?
Answer: Its IC50 is 55.2 ± 17.3 µM.

Question: What about the IC50 (A549 (lung cancer) cells) of the same compound?
Answer: Its IC50 is 53 ± 10.8 µM.

Question: What about the IC50 at 48 h [6] of the same compound?
Answer: Its IC50 at 48 h is 68.3 ± 19.6 µM.

Question: Which results are given for `CCOC(=O)/C(=C/c1cc(OC)c(OC)c(OC)c1)c1ccc(OC)c(Br)c1` [Compound 5]?
Answer: IC50 [1]: 73.6 ± 8.4 µM; IC50 [2]: 57.5 ± 3.9 µM; IC50 [3]: 43.2 ± 10.2 µM; IC50 [4]: 42.1 ± 10.2 µM; IC50 [5]: 45.2 ± 5.5 µM; IC50 (A549 (lung cancer) cells): 46.6 ± 12.1 µM; IC50 at 48 h [6]: 45 ± 7.2 µM

Question: Which IC50 [1] does the source give for `C#CCOC(=O)/C(=C/c1cc(OC)c(OC)c(OC)c1)c1ccc(OC)c(Br)c1` [Compound 6] here?
Answer: The IC50 was greater than 100 µM.

Question: And the IC50 [2]?
Answer: Its IC50 is greater than 100 µM.

Question: What about the IC50 [3] of the same compound?
Answer: The IC50 was greater than 100 µM.

Question: What about the IC50 [4] of the same compound?
Answer: Its IC50 is greater than 100 µM.

Question: What about the IC50 [5] of the same compound?
Answer: The IC50 was greater than 100 µM.

Question: And the IC50 (A549 (lung cancer) cells)?
Answer: Its IC50 is greater than 100 µM.

Question: What about the IC50 at 48 h [6] of the same compound?
Answer: The IC50 at 48 h was greater than 100 µM.

Question: Which IC50 [1] does the source give for `COc1ccc(/C(=C\c2cc(OC)c(OC)c(OC)c2)C(=O)OCc2ccccc2)cc1Br` [Compound 7] here?
Answer: Its IC50 is greater than 100 µM.

Question: What about the IC50 [2] of the same compound?
Answer: Its IC50 is greater than 100 µM.

Question: And the IC50 [3]?
Answer: The IC50 was greater than 100 µM.

Question: What about the IC50 [4] of the same compound?
Answer: Its IC50 is greater than 100 µM.

Question: What about the IC50 [5] of the same compound?
Answer: Its IC50 is greater than 100 µM.

Question: What about the IC50 (A549 (lung cancer) cells) of the same compound?
Answer: The IC50 was greater than 100 µM.

Question: And the IC50 at 48 h [6]?
Answer: The IC50 at 48 h was greater than 100 µM.

Question: What does the source list for `COc1ccc(/C(=C\c2cc(OC)c(OC)c(OC)c2)C(=O)OCCCCCCBr)cc1Br` [Compound 9]?
Answer: IC50 [1]: > 100 µM; IC50 [2]: > 100 µM; IC50 [3]: > 100 µM; IC50 [4]: > 100 µM; IC50 [5]: > 100 µM; IC50 (A549 (lung cancer) cells): > 100 µM; IC50 at 48 h [6]: > 100 µM; Cytotoxicity (in words) [7]: did not show any cytotoxicity

Question: For `CNC(=O)/C(=C/c1cc(OC)c(OC)c(OC)c1)c1ccc(OC)c(Br)c1` [Compound 10], which IC50 [1] is on record?
Answer: Its IC50 is 52.2 ± 17.9 µM.

Question: And the IC50 [2]?
Answer: Its IC50 is 46 ± 11.4 µM.

Question: What about the IC50 [3] of the same compound?
Answer: The IC50 was 44.9 ± 12.1 µM.

Question: And the IC50 [4]?
Answer: Its IC50 is 50.5 ± 10.5 µM.

Question: What about the IC50 [5] of the same compound?
Answer: Its IC50 is 55.5 ± 20.3 µM.

Question: What about the IC50 (A549 (lung cancer) cells) of the same compound?
Answer: Its IC50 is 49.3 ± 16.3 µM.

Question: And the IC50 at 48 h [6]?
Answer: The IC50 at 48 h was 55.3 ± 17 µM.

Question: For `CCCCNC(=O)/C(=C/c1cc(OC)c(OC)c(OC)c1)c1ccc(OC)c(Br)c1` [Compound 11], which IC50 [1] is on record?
Answer: Its IC50 is 50.2 ± 11.2 µM.

Question: What about the IC50 [2] of the same compound?
Answer: Its IC50 is 50.8 ± 14.5 µM.

Question: What about the IC50 [3] of the same compound?
Answer: The IC50 was 67.2 ± 18.6 µM.

Question: What about the IC50 [4] of the same compound?
Answer: Its IC50 is 50.5 ± 17.5 µM.

Question: What about the IC50 [5] of the same compound?
Answer: Its IC50 is 61.4 ± 21.8 µM.

Question: What about the IC50 (A549 (lung cancer) cells) of the same compound?
Answer: The IC50 was 65.1 ± 17.3 µM.

Question: What about the IC50 at 48 h [6] of the same compound?
Answer: The IC50 at 48 h was 58.6 ± 22.2 µM.

Question: What does the source list for `C#CCNC(=O)/C(=C/c1cc(OC)c(OC)c(OC)c1)c1ccc(OC)c(Br)c1` [Compound 12]?
Answer: IC50 [1]: > 100 µM; IC50 [2]: > 100 µM; IC50 [3]: > 100 µM; IC50 [4]: > 100 µM; IC50 [5]: > 100 µM; IC50 (A549 (lung cancer) cells): > 100 µM; IC50 at 48 h [6]: > 100 µM

Question: For `COc1ccc(/C(=C\c2cc(OC)c(OC)c(OC)c2)C(=O)NCc2ccccc2)cc1Br` [Compound 13], which IC50 [1] is on record?
Answer: Its IC50 is 59.8 ± 23 µM.

Question: And the IC50 [2]?
Answer: Its IC50 is 62.4 ± 3.1 µM.

Question: What about the IC50 [3] of the same compound?
Answer: Its IC50 is 55.8 ± 23.7 µM.

Question: What about the IC50 [4] of the same compound?
Answer: Its IC50 is 56.2 ± 22.2 µM.

Question: And the IC50 [5]?
Answer: The IC50 was 59.8 ± 18.8 µM.

Question: And the IC50 (A549 (lung cancer) cells)?
Answer: The IC50 was 82.1 ± 13.9 µM.

Question: And the IC50 at 48 h [6]?
Answer: Its IC50 at 48 h is 68.5 ± 4.8 µM.

Source: article PMC11124394, “Novel Combretastatin A-4 Analogs—Design, Synthesis, and Antiproliferative and Anti-Tubulin Activity” (Molecules, 2024)
